Read-outs that look alike come from different tables or passages of the source.
Columns and labels:
[1] = Pharmacokinetics after PO administration in mice; format: in vivo; details: for BA: vs IV AUCinf at 1 mg/kg; for AUC(0-t): read-out: AUC24h; for Cmax: read-out: Cmax,1; for Tmax: po
Experimental: Male ICR mice (7 weeks old, […]; Samtako, Osan, Korea) were acclimated to the animal facility at Kyungpook National University for one week with free access to animal chow and water. In the per oral administration (PO) groups, the mice were fasted for 14–16 h prior to the administration of 2-QBA.
After the PO administration of 2-QBA (2 mg/kg in 5 mL of saline containing 10% DMSO) using an oral gavage for 10 mice, blood samples were collected at 0.25, 0.75, 2, and 8 h from 5 mice and at 0.5, 1, 4, and 24 h from another 5 mice. Ten mice in each group were administered 5 mg/kg or 15 mg/kg of 2-QBA using an oral gavage and blood was drawn using the same protocol described above. All blood samples were centrifuged at 13,000× g for 1 min and the supernatant plasma (30 μL) was stored at −80 °C until the analysis of the 2-QBA. For the analysis of 2-QBA in the plasma samples, 120 μL of IS solution (berberine 1 ng/mL in acetonitrile) was added to plasma samples (30 μL). The mixture was vigorously vortexed for 5 min and then centrifuged at 13,000× g for 5 min. The supernatant was transferred to autosampler vials. Subsequently, a 3 μL aliquot was injected into the LC-MS/MS system.
WinNonlin 5.1 software (Pharsight Co., Mountain View, CA, USA) was used to calculate the pharmacokinetic parameters. AUClast and AUCinf indicate the areas under the plasma concentration curve from 0 h to the last sample and from 0 h to infinity, respectively; these were estimated using the linear trapezoidal method. T1/2 is the elimination half-life, which is estimated from the elimination coefficient (k) (i.e., 0.693/k), and MRT is the mean residence time. CL is the total clearance, which is calculated by dividing the dose by AUCinf. Vdss is the volume of the distribution at a steady state, calculated from MRTxCL. CLrenal and CLfeces are calculated by dividing the amount excreted in urine and feces by the AUCinf, respectively. CLmetabolism is calculated by subtracting CLrenal and CLfeces from CL. Cmax and Tmax are the maximum plasma concentration and time to reach Cmax, respectively. BA is calculated by dividing the dose-normalized AUCinf for PO administration (AUCinf/PO dose) by the dose-normalized AUCinf for IV administration (AUCinf/IV dose). All data are expressed as the mean ± standard deviation (SD).

[2] = Intestinal permeability in Ussing chamber; format: in vitro ADME, mice; details: upper and lower ileum
Experimental: The small intestines were isolated from fasted mice under isoflurane anesthesia (1–3% with oxygen gas flow) and dissected into three parts, the jejunum, upper ileum, and lower ileum. […] The intestinal permeability of 2-QBA was assessed by adding 0.5 mL of HBSS containing 20 μM of 2-QBA on the donor side and 0.5 mL of fresh HBSS on the receiver side. Then, a 100 μL aliquot was withdrawn from the receiver side every 30 min for 2 h and an equal volume of pre-warmed fresh HBSS was added to replenish the lost volume. To analyze the 2-QBA, 100 μL aliquots were mixed with 4 volumes of IS solution (1 ng/mL berberine in acetonitrile). The mixture was vigorously vortexed for 5 min and then centrifuged at 13,000× g for 5 min. The supernatant was transferred to autosampler vials. Subsequently, a 3 μL aliquot was injected into the LC-MS/MS system.

[3] = Stability of 2-QBA in mouse plasma (QC samples); format: in vitro ADME; details: for Freeze-thaw cycle stability, Accuracy / Bench-top stability, Accuracy: mouse plasma; for Freeze-thaw cycle stability, Accuracy: 3 cycles; for Bench-top stability, Accuracy: 25 °C for 6 h; for Autosampler stability, Accuracy: prepared plasma samples, 6 °C for 24 h
Experimental: The stability of 2-QBA in mouse plasma was tested in terms of its benchtop stability, freeze–thaw stability, and autosampler stability. In all stability tests, three sets of QC samples (3, 100, and 400 ng/mL) were prepared.
The benchtop stability was tested by incubating the samples at 25 °C for 6 h. For the freeze–thaw stability, the samples were placed at −80 °C for over 12 h for freezing and thawed at 25 °C for 6 h as one cycle; the same protocol was repeated for three cycles. Finally, the autosampler stability was tested by placing the prepared QC samples in the autosampler at 6 °C for 24 h. After analyzing all of the stability test samples, the concentrations were calculated using freshly prepared calibration standards.

[4] = male, ICR, mouse, plasma, PO 2 mg/kg
[5] = male, ICR, mouse, plasma, PO 5 mg/kg
[6] = male, ICR, mouse, plasma, PO 15 mg/kg

mean absorption time (MRTPO–MRTIV) [1]: 8.02 h
AUC24h/dose ([1]; PO 2 mg/kg): 684.2 ± 340.3 ng·h/mL/mg/kg
AUCinf/dose ([1]; PO 2 mg/kg): 712.7 ± 348.0 ng·h/mL/mg/kg
BA ([1]; PO 2 mg/kg): 68.3%
AUC24h/dose ([1]; PO 5 mg/kg): 702.9 ± 169.2 ng·h/mL/mg/kg
AUCinf/dose ([1]; PO 5 mg/kg): 873.7 ± 186.9 ng·h/mL/mg/kg
BA ([1]; PO 5 mg/kg): 83.7%
AUC24h/dose ([1]; PO 15 mg/kg): 705.5 ± 182.3 ng·h/mL/mg/kg
AUCinf/dose ([1]; PO 15 mg/kg): 734.7 ± 176.3 ng·h/mL/mg/kg
BA ([1]; PO 15 mg/kg): 70.4%
AUC(0-inf) [1, 4]: 1430 ± 696 ng·h/mL
MRT [1, 4]: 12 ± 4.91 h
half-life [1, 4]: 7.82 ± 1.76 h
AUC(0-t) [1, 4]: 1370 ± 680 ng·h/mL
Cmax [1, 4]: 283 ± 174 ng/mL
AUC(0-inf) [1, 5]: 4370 ± 934 ng·h/mL
MRT [1, 5]: 13.7 ± 3.14 h
half-life [1, 5]: 9.91 ± 1.92 h
AUC(0-t) [1, 5]: 3510 ± 846 ng·h/mL
Cmax [1, 5]: 752 ± 319 ng/mL
AUC(0-inf) [1, 6]: 11000 ng·h/mL
MRT [1, 6]: 7.04 ± 0.76 h
half-life [1, 6]: 5.58 ± 1.24 h
AUC(0-t) [1, 6]: 10600 ng·h/mL
Cmax [1, 6]: 2460 ± 696 ng/mL
bioavailability ([1]; male, ICR, mouse, plasma, PO 2.0, 5.0 and 15 mg/kg, read-out: absolute oral bioavailability (BA) range): 68.3 to 83.7%
Tmax ([1]; male, ICR, mouse, plasma, 2 mg/kg, PO 2 mg/kg, read-out: Tmax,1): 0.2 ± 0.11 h
Tmax ([1]; male, ICR, mouse, plasma, 2 mg/kg, PO 2 mg/kg, read-out: Tmax,2): ~5.6 h
Tmax ([1]; male, ICR, mouse, plasma, 5 mg/kg, PO 5 mg/kg, read-out: Tmax,1): 0.25 h
Tmax ([1]; male, ICR, mouse, plasma, 15 mg/kg, PO 15 mg/kg, read-out: Tmax,1): 0.3 ± 0.11 h
Tmax ([1]; male, ICR, mouse, plasma, PO 2-15 mg/kg, read-out: Tmax,1 (range over doses)): 0.2 to 0.3 h
Tmax ([1]; male, ICR, mouse, plasma, PO 2-15 mg/kg, read-out: Tmax,2 (range over doses)): 3.5 to 5.6 h
absorptive permeability class compared with marker compounds ([2]; jejunum): moderate to high
Papp A→B at 2 h, 20 μM ([2]; mouse, 20 μM donor, HBSS pH 7.4, range over jejunum, read-out: absorptive permeability): 4.46 to 10 ×10⁻⁶ cm/s
Freeze-thaw cycle stability, Accuracy ([3]; nominal 100 ng/mL): 104.3%
Freeze-thaw cycle stability, Accuracy ([3]; nominal 400 ng/mL): 106.4%
Bench-top stability, Accuracy ([3]; nominal 3 ng/mL): 98.51%
Bench-top stability, Accuracy ([3]; nominal 100 ng/mL): 89.14%
Bench-top stability, Accuracy ([3]; nominal 400 ng/mL): 91.55%
Autosampler stability, Accuracy ([3]; nominal 3 ng/mL): 109.5%
Autosampler stability, Accuracy ([3]; nominal 100 ng/mL): 103.1%
Autosampler stability, Accuracy ([3]; nominal 400 ng/mL): 108.7%
Structure (SMILES): O=C(O)c1ccccc1NC(=O)c1cccc2cccnc12 [2-QBA, 2-(quinoline-8-carboxamido)benzoic acid]
